This is an account of results in publication PMC12756739 (ACS Omega, 2025).

For assay [1], the system named is NIH3T3 cells. Nature of the assay: MTT cytotoxicity test, NIH3T3 cell line. The conditions noted are these: Mus musculus, NIH3T3, read-out: IC50 (μM) NIH3T3. The class given is cell-based. (Tetrazolium assays rely on reduction of a dye to a coloured formazan, in cell work by metabolically active cells.)
Assay [2] relates to A549 cell line. Put plainly: MTT cytotoxicity test, A549 cell line. Type of assay: cell-based. Particulars: Homo sapiens, A549, read-out: IC50 (μM) A549.
Assay [3] has as its target T1, COX-2 enzyme (Homo sapiens, UniProt P35354).
T1 sequence (P35354 18-604): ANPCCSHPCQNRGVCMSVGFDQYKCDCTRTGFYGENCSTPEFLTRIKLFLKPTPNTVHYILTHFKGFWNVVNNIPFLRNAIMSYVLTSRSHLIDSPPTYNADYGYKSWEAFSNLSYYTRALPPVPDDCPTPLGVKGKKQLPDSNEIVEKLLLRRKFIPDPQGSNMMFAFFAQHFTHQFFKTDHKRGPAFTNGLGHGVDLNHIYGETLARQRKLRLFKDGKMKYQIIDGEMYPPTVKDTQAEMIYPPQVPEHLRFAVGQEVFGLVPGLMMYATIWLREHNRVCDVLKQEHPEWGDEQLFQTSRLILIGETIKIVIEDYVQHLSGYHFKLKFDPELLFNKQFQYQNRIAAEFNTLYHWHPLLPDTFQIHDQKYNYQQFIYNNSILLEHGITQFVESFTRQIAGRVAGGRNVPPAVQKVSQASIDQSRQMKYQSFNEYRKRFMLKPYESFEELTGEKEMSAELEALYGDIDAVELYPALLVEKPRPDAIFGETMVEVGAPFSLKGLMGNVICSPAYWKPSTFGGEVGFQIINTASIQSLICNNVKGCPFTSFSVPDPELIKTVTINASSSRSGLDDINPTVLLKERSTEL
Nature of the assay: biochemical.

Assay [4] has as its system MCF-7 cell line. Put plainly: MTT cytotoxicity test, MCF-7 cell line. Type of assay: cell-based. Particulars: Homo sapiens, MCF7, read-out: IC50 (μM) MCF-7.
For assay [5], the system named is carbonic anhydrase XII (CA XII). The conditions noted are these: ref Fadaly et al.; cited from earlier work.
The subject of assay [6] is carbonic anhydrase IX (CA IX). Particulars: ref Fadaly et al.; cited from earlier work.
The subject of assay [7] is topoisomerase II. The conditions noted are these: ref Ewieda et al.; cited from earlier work.
In assay [8] the test system is EGFR^WT. The conditions noted are these: read-out: IC50 EGFR^WT; ref Aboelez et al.; cited from earlier work.
Assay [9] concerns tubulin polymerization. Particulars: read-out: antitubulin polymerization IC50; ref Aboelez et al.; cited from earlier work.
In assay [10] the test system is EGFR^T790M. The conditions noted are these: read-out: IC50 EGFR^T790M; ref Aboelez et al.; cited from earlier work.
Assay [11] relates to AKT-1. The conditions noted are these: read-out: IC50 AKT-1; ref Abd El-Mawgoud et al.; cited from earlier work.
Assay [12] deals with VEGFR-2. The conditions noted are these: read-out: IC50 VEGFR-2; ref Abd El-Mawgoud et al.; cited from earlier work.
The subject of assay [13] is HDAC1. The conditions noted are these: read-out: IC50 HDAC1; ref Mohamed et al.; cited from earlier work.
The target in assay [14] is CA IX. Particulars: read-out: inhibition constant CA IX; ref Mohamed et al.; cited from earlier work.
Assay [15] has as its system HDAC2. Particulars: read-out: IC50 HDAC2; ref Mohamed et al.; cited from earlier work.
Assay [16] addresses CA XII. The conditions noted are these: read-out: inhibition constant CA XII; ref Mohamed et al.; cited from earlier work.
Assay [17] has as its system tubulin polymerization. The conditions noted are these: read-out: IC50 antitubulin polymerization assay; ref Mohamed et al.; cited from earlier work.
The test system of assay [18] is CDK2. The conditions noted are these: ref Abdalla et al.; cited from earlier work.
In assay [19] the test system is CDK6. The conditions noted are these: ref Abdalla et al.; cited from earlier work.
In assay [20] the test system is CDK12. The conditions noted are these: ref Abdalla et al.; cited from earlier work.

Where two headings read alike, the source gives them in different places. Some results are limits rather than exact numbers.

As usually defined, the IC50 is the point on the concentration scale where inhibition reaches its midpoint. In the case of `O=C(CSc1nnc(NC(=O)c2ccc(Cl)cc2)s1)Nc1ccc(C(F)(F)F)cc1` [3g, 4-Chloro-N-(5-((2-oxo-2-((4-(trifluoromethyl)phenyl)amino)ethyl)thio)-1,3,4-thiadiazol-2-yl)benzamide], the IC50 in [1] was over 100 µM; in assay [2] it was 21.1 ± 0.996 µM; in assay [3], over 100 µM; in assay [4], 27.1 ± 1.26 µM.

In the case of `COc1ccc(-c2csc(N3N=C(c4nnn(-c5ccc(S(N)(=O)=O)cc5)c4C)CC3c3ccc(OC)cc3)n2)cc1` (stereo not drawn) [4-(4-(5-(4-methoxyphenyl)-1-(4-(4-methoxyphenyl)thiazol-2-yl)-4,5-dihydro-1H-pyrazol-3-yl)-5-methyl-1H-1,2,3-triazol-1-yl)benzenesulfonamide], the “activity against CA XII” value in assay [5] was 0.031 µM. In assay [6], the “activity against CA IX” value is 0.025 µM.

For the compound `Br.CCOC(=O)C1=C(c2ccccc2)N=C2SC=C(c3ccc(C)cc3)N2C1c1ccc(Br)cc1` (stereo not drawn) [Ethyl 5-(4-bromophenyl)-3-(4-methylphenyl)-7-phenyl-5H-thiazolo[3,2-a]pyrimidine-6-carboxylate hydrobromide], in assay [7], the activity against topoisomerase was 0.94 µM.

On to `NS(=O)(=O)c1ccc(NC(=O)CSc2nnc(NC(=O)c3ccc(Cl)c(Cl)c3)s2)cc1` [3e, 3,4-Dichloro-N-(5-((2-oxo-2-((4-sulfamoylphenyl)amino)ethyl)thio)-1,3,4-thiadiazol-2-yl)benzamide], for which the IC50 in assay [1] was 70.8 ± 2.5 µM; in [2] it was over 100 µM; in assay [3], 0.32 ± 0.014 µM; in assay [4] it was 11 ± 0.402 µM.

`O=C(CSc1nnc(NC(=O)c2ccc(F)cc2)s1)Nc1ccccc1` [3k, 4-Fluoro-N-(5-((2-oxo-2-(phenylamino)ethyl)thio)-1,3,4-thiadiazol-2-yl)benzamide]: the IC50 is over 100 µM in [1], 69.1 ± 2.8 µM in [2], over 1000 µM in [3] and over 100 µM in assay [4].

Turning to `COc1ccc(C(=O)Nc2nnc(SCC(=O)Nc3ccc(Cl)cc3)s2)cc1` [3t, 4-Methoxy-N-(5-((2-oxo-2-((4-chlorophenyl)amino)ethyl)thio)-1,3,4-thiadiazol-2-yl)benzamide], the concentration for half-maximal inhibition (IC50) in [1], in [2], in [3] and in [4] was over 100 µM each time.

Consider `CC(=NNC(=O)c1sc2sc(C(=O)NN=C(C)c3ccccc3)c(N)c2c1N)c1ccccc1` [3,4-diamino-N′2,N′5-bis(1-phenylethylidene)thieno[2,3-b]thiophene-2,5-dicarbohydrazide], for which the IC50 in assay [8] was 0.0281 µM; in assay [9], 5.1 µM; in [10], 0.0246 µM.

For `O=C(CSc1nnc(NC(=O)c2ccc(Cl)c(Cl)c2)s1)Nc1ccccc1` [3a, 3,4-Dichloro-N-(5-((2-oxo-2-(phenylamino)ethyl)thio)-1,3,4-thiadiazol-2-yl)benzamide], the IC50 in assay [1] was over 100 µM; in assay [2] it was over 100 µM; in [3], 2.39 ± 0.104 µM; in [4], over 100 µM.

Turning to `O=C(CSc1nnc(NC(=O)c2ccc(Cl)c(Cl)c2)s1)Nc1ccc(C(F)(F)F)cc1` [3b, 3,4-Dichloro-N-(5-((2-oxo-2-((4-(trifluoromethyl)phenyl)amino)ethyl)thio)-1,3,4-thiadiazol-2-yl)benzamide], the IC50 in assay [1] was 67.1 ± 2.37 µM; in [2], 46.5 ± 1.45 µM; in assay [3], over 1000 µM; in [4], over 100 µM.

For `COc1ccc(C(=O)Nc2nnc(SCC(=O)Nc3ccc(C(F)(F)F)cc3)s2)cc1` [3r, 4-Methoxy-N-(5-((2-oxo-2-((4-(trifluoromethyl)phenyl)amino)ethyl)thio)-1,3,4-thiadiazol-2-yl)benzamide], the IC50 is 47.6 ± 1.77 µM in assay [1], over 100 µM in [2], over 100 µM in assay [3] and 43.1 ± 2.06 µM in [4].

Regarding `COc1cccc2c1C(=O)c1c(O)c3c(c(O)c1C2=O)C[C@@](O)(C(=O)CO)C[C@@H]3O[C@H]1C[C@H](N)[C@H](O)[C@H](C)O1` [doxorubicin, reference compound], the 50% inhibitory concentration (IC50) in assay [1] is over 100 µM.

Consider `O=C(CSc1nnc(NC(=O)c2ccc(Cl)c(Cl)c2)s1)Nc1ccc(Cl)cc1` [3d, 3,4-Dichloro-N-(5-((2-((4-chlorophenyl)amino)-2-oxoethyl)thio)-1,3,4-thiadiazol-2-yl)benzamide], for which the IC50 in assay [1] was over 100 µM; in [2], over 100 µM; in [3] it was 6.72 ± 0.312 µM; in assay [4], over 100 µM.

In the case of `Nc1nc2c3c(N)c(-c4nnc(NC(=O)c5ccccc5)s4)sc3ncn2n1` [N-(5-(2,9-diaminothieno[3,2-e]1,3,4-triazolo[1,5-c]pyrimidin-8-yl)-1,3,4-thiadiazol-2-yl)benzamide], the IC50 in assay [11] was 0.452 µM; in assay [12] it was 0.164 µM.

`O=C(CSc1nnc(NC(=O)c2ccc(F)cc2)s1)Nc1ccc(Cl)cc1` [3n, 4-Fluoro-N-(5-((2-((4-chlorophenyl)amino)-2-oxoethyl)thio)-1,3,4-thiadiazol-2-yl)benzamide]: the IC50 in assay [1] was over 100 µM; in [2] it was over 100 µM; in assay [3] it was 0.721 ± 0.03 µM; in [4] it was over 100 µM.

Turning to `O=C(CSc1nnc(NC(=O)c2ccc(F)cc2)s1)Nc1ccc(C(F)(F)F)cc1` [3l, 4-Fluoro-N-(5-((2-oxo-2-((4-(trifluoromethyl)phenyl)amino)ethyl)thio)-1,3,4-thiadiazol-2-yl)benzamide], the IC50 amounted to 46.2 ± 1.82 µM in assay [1]; 41.1 ± 1.96 µM in [2]; 0.974 ± 0.045 µM in [3] (read-out: COX-2 IC50, fluorometric kit, 25 °C); 30.5 ± 1.37 µM in [4].

Consider `COc1ccc(C(=O)Nc2nnc(SCC(=O)Nc3ccccc3)s2)cc1` [3p, 4-Methoxy-N-(5-((2-oxo-2-(phenylamino)ethyl)thio)-1,3,4-thiadiazol-2-yl)benzamide], for which the IC50 in assay [1] was over 100 µM; in assay [2] it was over 100 µM; in assay [3], over 1000 µM; in assay [4] it was over 100 µM.

Consider `NS(=O)(=O)c1ccc(NC(=O)COc2ccc(/C=C/C(=O)c3ccc(Br)cc3)cc2)cc1` [(E)-2-(4-(3-(4-bromophenyl)-3-oxoprop-1-en-1-yl)phenoxy)-N-(4-sulfamoylphenyl)acetamide], for which the IC50 in [13] is 0.134 µM; in [15], 0.0663 µM; in assay [17], 2.56 µM. Moreover, the results for the Ki in assay [14] and in [16] were 0.072 ± 0.00258 µM and 0.0508 ± 0.00258 µM, respectively.

On to `O=C(CSc1nnc(NC(=O)c2ccc(Cl)cc2)s1)Nc1ccccc1` [3f, 4-Chloro-N-(5-((2-oxo-2-(phenylamino)ethyl)thio)-1,3,4-thiadiazol-2-yl)benzamide], for which the concentration for half-maximal inhibition (IC50) in assay [1] is over 100 µM; in [2], over 100 µM; in [3], 0.874 ± 0.039 µM; in assay [4], over 100 µM.

As to `Nc1ccccc1C(=O)O` [Anthranilic acid], in assay [18], the “activity against CDK2” value is 0.67 µM. Further, in assay [19], the “activity against CDK6” value is 0.48 µM. Further, in assay [20], the “activity against CDK12” value was 0.82 µM.

For `O=C(CSc1nnc(NC(=O)c2ccc(Cl)cc2)s1)Nc1ccc(Cl)cc1` [3i, 4-Chloro-N-(5-((2-((4-chlorophenyl)amino)-2-oxoethyl)thio)-1,3,4-thiadiazol-2-yl)benzamide], the IC50 in [1] was 24.9 ± 1.18 µM; in assay [2], over 100 µM; in [3] it was 3.78 ± 0.177 µM; in assay [4] it was 12.1 ± 0.589 µM.
